This is an account of results in patent US5658917A, “Isoquinolines having adenosine uptake inhibitor activity” (Kyowa Hakko Kogyo Co., Ltd., priority 1993, dated 1997).

By Ki is commonly meant the dissociation constant of the complex between target and ligand, obtained from inhibition or displacement. Usually IC50 stands for the concentration at which inhibition is half-maximal.

Data set [1] deals with T1, [^3 H]-Nitrobenzylthioinosine (NBI) binding, cerebral cortex tissue homogenate (Cavia porcellus, UniProt H0V4R7).
T1 construct: The cerebral cortex of a male guinea pig of Hartley strain was homogenized; from tissue; host or cells: guinea pig (male, Hartley strain) cerebral cortex, washed membrane suspension
T1 sequence (H0V4R7 1-461): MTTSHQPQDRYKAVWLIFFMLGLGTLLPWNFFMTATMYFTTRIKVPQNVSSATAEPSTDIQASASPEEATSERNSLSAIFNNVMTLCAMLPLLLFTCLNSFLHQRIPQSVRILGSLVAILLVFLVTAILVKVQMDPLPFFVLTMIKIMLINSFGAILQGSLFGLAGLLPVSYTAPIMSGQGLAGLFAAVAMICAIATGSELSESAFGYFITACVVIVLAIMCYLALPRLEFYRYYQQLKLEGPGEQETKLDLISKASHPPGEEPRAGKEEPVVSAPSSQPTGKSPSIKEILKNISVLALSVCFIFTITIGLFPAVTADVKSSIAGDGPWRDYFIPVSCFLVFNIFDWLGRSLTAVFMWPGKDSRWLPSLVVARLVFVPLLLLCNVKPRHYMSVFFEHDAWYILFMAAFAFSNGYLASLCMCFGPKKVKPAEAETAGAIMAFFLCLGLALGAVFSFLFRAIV
Description: Inhibitory effect on [^3 H]-nitrobenzylthioinosine (NBI) binding. More on the design: species or system guinea pig (Hartley strain, male). The following applies: guinea pig cerebral cortex; 1.5 nM [^3 H]-NBI; 25° C., 30 minutes; Cheng-Prusoff. The procedure:
Test Example 2 Inhibitory Effect on [^3 H]-Nitrobenzylthioinosine (NBI) Binding (an indication of adenosine uptake inhibitory activity)
The cerebral cortex of a male guinea pig of Hartley strain was homogenized with an ice-cooled 50 mM tris-HCl buffer (pH 7.4) in an amount of 25 times (w/v) that of the tissue. The homogenate was centrifuged (30,000×g, 4° C., 20 mins.), and the supernatant was discarded. To the precipitate was added the same amount of the buffer, followed by homogenization and then centrifugation in the same manner as above. The obtained precipitate was suspended in 20 times as much buffer as the precipitate to prepare a suspension for testing.
To a DMSO solution of a test compound were added 1.5 nM of [^3 H]-NBI and 5 mg (wet basis) of the tissue homogenate, and the mixture was allowed to stand at 25° C. for 30 minutes. To the mixture was added 4 ml of an ice-cooled buffer, followed by rapid filtration with suction through a glass filter (GF/C, produced by Whatman Ltd.) or a Ready filter (produced by Beckman Co.) to stop the reaction. The filter was transferred to a scintillation vial, and after drying, Scintisol EX-H was added thereto. The radioactivity was measured with a liquid scintillation counter. The binding inhibitory activity was expressed in terms of an inhibition constant (Ki value) as calculated according to Cheng-Prusoff's formula.

Data set [2] relates to [^3 H]-adenosine uptake by washed erythrocytes. The data set is described as follows: Inhibitory effect on [^3 H]-adenosine uptake (washed erythrocytes). The following applies: Erythrocyte; human washed erythrocytes; 1 hour preincubation at room temperature; 10 seconds uptake; read-out: [^3 H]-Adenosine Uptake Inhibition IC50. Type of data set: cell-based, human (healthy male adult). The procedure: Test Example 1 Inhibitory Effect on [^3 H]-Adenosine Uptake
[…] To 100 μl of an erythrocyte suspension (2.5×10^9 /ml) was added 10 μl of a 21% DMSO solution of a test compound. After allowing the suspension to stand at room temperature for 1 hour, 100 μl of a [^3 H]-adenosine solution was added thereto. Ten seconds later, 200 μl of a dilazep solution (1 mg/ml) was added to stop the reaction. The erythrocytes were dissolved in Triton X-100, and the uptake amount of ^3 H was measured with a liquid scintillation counter. The concentration of the test compound which inhibits the [^3 H]-adenosine uptake by 50% (IC50) was calculated.

The nature of data set [3]: Inhibitory effect on ischemic paw edema in mice. Format: in vivo, mouse (ddY-strain, male). The following applies: 30 mg/kg orally 1 hour before 20 min ischemia; for Paw Edema Supression Rate After 20 minutes: 20 minutes after blood recirculation; for Paw Edema Supression Rate After 40 minutes: 40 minutes after blood recirculation; for Paw Edema Supression Rate After 60 minutes: 60 minutes after blood recirculation. An excerpt: Test Example 3 Inhibitory Effect on Ischemic Paw Edema in Mice
Ischemia followed by reperfusion in the limb of a mouse induces paw edema due to membrane injury in which active oxygen is involved [Arzneim.-Forsch., 41, 469-474 (1991)]. In general, peroxidation of membrane lipid and calcium influx into cells play roles in ischemia-reperfusion injury [Life Science, 29, 1289-1295 (1981); Japan J. Pharmacol., 52, 553-562 (1990)]. It is active oxygen production that triggers these factors, and the source of active oxygen includes endothelial cells and leukocytes [J. Mol. Cell Cardiol., 20 (Suppl. II), 55-63 (1988); Blood, 73, 301-306 (1989)]. […] J. Physiol., 257, H1334-1339 (1989); J. Immunol., 135, 1366-1371 (1985)]. Accordingly, it is believed that a compound effective on an ischemic podedema model in mice as hereinafter described would provide a convenient and useful model for evaluating an adenosine uptake inhibitor.
Experiments were conducted in accordance with the method described in Arzneim.-Forsch., 41, 469-474 (1991). A test compound was suspended in water and orally given to grouped male mice of ddY-strain weighing 25 to 30 g at a dose of 30 mg/kg. One hour later, the left hind limb was bound with a rubber band for 20 minutes to cause ischemia, and 20, 40 and 60 minutes after blood recirculation, the paw thickness was measured with a pair of calipers (Digimatic Caliper manufactured by Mitsutoyo K.K.). The paw edema was determined as the difference in thickness between the left hind paw (ischemia-treated) and the non-treated right one. Each result was expressed in terms of percent suppression of edema in a test compound group on the basis of the edema in a control group.

Data set [4] deals with ddY-strain male mice. The data set is described as follows: Acute toxicity test. Format: in vivo. To be noted: mortality seven days after administration. The text has this:
Test Example 4 Acute Toxicity Test
A test compound was intraperitoneally or orally administered to groups of ddY-strain male mice weighing 20±1 g, each group consisting of three mice.

In data set [1], `COc1cc2ncnc(N3CCC(n4c(=O)c5cc([N+](=O)[O-])ccc5n(C)c4=O)CC3)c2cc1OC` [Compound 1, 3-[1-(6,7-Dimethoxy-4-quinazolinyl)-4-piperidinyl]-1,2,3,4-tetrahydro-1-methyl-6-nitro-2,4-dioxoquinazoline] came in with a Ki of 0.018 µM. In addition, the IC50 in data set [2] came out at 0.042 µM.
Turning to `CCn1c(=O)n(C2CCN(c3ncnc4cc(OC)c(OC)cc34)CC2)c(=O)c2cc([N+](=O)[O-])ccc21` [Compound 2, 3-[1-(6,7-Dimethoxy-4-quinazolinyl)-4-piperidinyl]-1-ethyl-1,2,3,4-tetrahydro-6-nitro-2,4-dioxoquinazoline], in data set [1], the Ki was found to be 0.018 µM. Further, in data set [3], the “Paw Edema Supression Rate After 20 minutes” value stood at 4.1 ± 2.98%, the “Paw Edema Supression Rate After 40 minutes” value came to 9.0 ± 3.79% and the “Paw Edema Supression Rate After 60 minutes” value worked out at 15.5 ± 4.09%. In data set [4], the “minimum lethal dose (MLD) i.p.” value is over 100 mg/kg and the “minimum lethal dose (MLD) p.o.” value is reported as over 300 mg/kg. The IC50 in data set [2] came out at 0.103 µM.
Regarding `CCCn1c(=O)n(C2CCN(c3ncnc4cc(OC)c(OC)cc34)CC2)c(=O)c2cc([N+](=O)[O-])ccc21` [Compound 3, 3-[1-(6,7-Dimethoxy-4-quinazolinyl)-4-piperidinyl]-1,2,3,4-tetrahydro-6-nitro-2,4-dioxo-1-propyl-quinazoline], the affinity in data set [1], expressed as Ki, was 0.0043 µM. Moreover, in data set [3], the “Paw Edema Supression Rate After 20 minutes” value is 4.8 ± 4.40%, the “Paw Edema Supression Rate After 40 minutes” value is listed as 11.6 ± 2.68% and the “Paw Edema Supression Rate After 60 minutes” value came to 14.9 ± 3.58%. Also, in data set [4], the “minimum lethal dose (MLD) i.p.” value is over 100 mg/kg and the “minimum lethal dose (MLD) p.o.” value is reported as over 300 mg/kg. Moreover, the IC50 in data set [2] stood at 0.062 µM.
On to `CCOC(=O)Cn1c(=O)n(C2CCN(c3ncnc4cc(OC)c(OC)cc34)CC2)c(=O)c2cc([N+](=O)[O-])ccc21` [Compound 6, 3-[1-(6,7-Dimethoxy-4-quinazolinyl)-4-piperidinyl]-1-ethoxycarbonylmethyl-1,2,3,4-tetrahydro-6-nitro-2,4-dioxoquinazoline], for which the IC50 in data set [2] was found to be 0.462 µM.
The same measure, in the same setting: the value for `COc1cc2ncnc(N3CCC(n4c(=O)c5cc([N+](=O)[O-])ccc5n(Cc5ccccc5)c4=O)CC3)c2cc1OC` [Compound 8, 1-Benzyl-3-[1-(6,7-dimethoxy-4-quinazolinyl)-4-piperidinyl]-1,2,3,4-tetrahydro-6-nitro-2,4-dioxo-quinazoline] was 0.295 µM.
In data set [1], `COc1cc2ncnc(N3CCC(n4c(=O)[nH]c5ccc([N+](=O)[O-])cc5c4=O)CC3)c2cc1OC` [Compound 24, 3-[1-(6,7-Dimethoxy-4-quinazolinyl)-4-piperidinyl]-1,2,3,4-tetrahydro-6-nitro-2,4-dioxoquinazoline] came in with a Ki of 0.015 µM. The IC50 in data set [2] was 0.038 µM.
For `COc1cc2ncnc(N3CCC(n4c(=O)c5cc(Br)ccc5n(C)c4=O)CC3)c2cc1OC` [Compound 45, 6-Bromo-3-[1-(6,7-dimethoxy-4-quinazolinyl)-4-piperidinyl]-1,2,3,4-tetrahydro-1-methyl-2,4-dioxo-quinazoline], in that order: 0.0069 µM and 0.054 µM.
The like results for `COc1cc2ncnc(N3CCC(n4c(=O)c5cc(C)ccc5n(C)c4=O)CC3)c2cc1OC` [Compound 50, 3-[1-(6,7-Dimethoxy-4-quinazolinyl)-4-piperidinyl]-1,2,3,4-tetrahydro-1,6-dimethyl-2,4-dioxoquinazoline] were, in that order, 0.012 µM and 0.054 µM.
With `CCCc1ccc2c(c1)c(=O)n(C1CCN(c3ncnc4cc(OC)c(OC)cc34)CC1)c(=O)n2C` [Compound 55, 3-[1-(6,7-Dimethoxy-4-quinazolinyl)-4-piperidinyl]-1,2,3,4-tetrahydro-1-methyl-2,4-dioxo-6-propyl-quinazoline], the IC50 in data set [2] came to 0.171 µM.
With `COc1cc2ncnc(N3CCC(n4c(=O)c5cc(C(C)=O)ccc5n(C)c4=O)CC3)c2cc1OC` [Compound 63, 6-Acetyl-3-[1-(6,7-dimethoxy-4-quinazolinyl)-4-piperidinyl]-1,2,3,4-tetrahydro-1-methyl-2,4-dioxo-quinazoline], the IC50 in data set [2] is 0.088 µM.
Turning to `COc1ccc2c(c1)c(=O)n(C1CCN(c3ncnc4cc(OC)c(OC)cc34)CC1)c(=O)n2C` [Compound 69, 3-[1-(6,7-Dimethoxy-4-quinazolinyl)-4-piperidinyl]-1,2,3,4-tetrahydro-6-methoxy-1-methyl-2,4-dioxo-quinazoline], the Ki in data set [1] came out at 0.011 µM. Further, the IC50 in data set [2] came to 0.157 µM.
With `COc1cc2nc(C)nc(N3CCC(n4c(=O)c5cc(C)ccc5n(C)c4=O)CC3)c2cc1OC` [Compound 80, 3-[1-(6,7-Dimethoxy-2-methyl-4-quinazolinyl)-4-piperidinyl]-1,2,3,4-tetrahydro-1,6-dimethyl-2,4-dioxo-quinazoline], in data set [2], the IC50 is 0.127 µM.
